Measured values: patent US8080582B2, “Derivatives of 8-epiblechnic acid and their effects on down-regulation of endothelin (ETA) receptor mRNA” (ScinoPharm Taiwan Ltd., priority 2008, dated 2011)

Experiments:
Assay type in all cases: cell-based
PC-3 cancer cells = experiment: Flow cytometry cell cycle analysis (sub-G1, apoptosis) of PC-3 cells; conditions: PC-3, 0.4 mM, 48 hrs, PI flow cytometry; control around 1.18%
Procedure: After suspending cells, the precooled 70% ethanol was used for fixing the cells. After centrifuging the mixture for 10 min. at 3,000 rpm, supernatant liquid was removed. Propidium iodide (PI) buffer (0.1% Triton X-100, 0.2 μg/ml RNase A, 40 μg/ml PI) was added, and then the solution was kept still at 37° C. for 30 min. After that, the cell cycle analysis was conducted by flow cytometry.
Flow cytometry was used to determine whether Sal-B and its analogs induced apoptosis in cancer cells. After treating PC-3 cancer cells with 0.4 mM Sal-B and EBA, and 0.01 mM compounds B and A for 48 hrs, the cells were collected and allowed to react with PI buffer for 30 min. Flow cytometry was then employed to measure the cell cycle. Approximately 5.16% of PC-3 cancer cells were at sub-G1 phase after treating with Sal-B, roughly 5.27% were at sub-G1 phase after treating with compound B, and roughly 8.54% were at sub-G1 phase after treating with compound A. However, for the control, only around 1.18% of the cells were at sub-G1 phase. Therefore, Sal-B and its analogs (compounds B and A) thus caused a significant increase in the percentage of cells at sub-G1 phase.

ETAR mRNA expression = experiment: Real-time quantitative RT-PCR of ETAR mRNA in smooth muscle cells (A10); conditions: vascular smooth muscle cells, 100 μg/ml, 48 hrs
Procedure: Extraction of cellular RNA: Subculturing smooth muscle cells to 100-mm culture dishes. After the cells had filled the culture dishes, Sal-B and its analogs were added to treat the cells for 48 hrs. After that, 1×PBS solutions were added to wash the cells three times. After adding 1 ml TRIzol, the cells were scraped off and placed in 1.5 ml micro-centrifuge tubes. Following the addition of 0.2 ml chloroform to each tube, the tubes were shaken, left at room temperature for 3 min., and run in a centrifuge at 12,000 rpm for 15 min. The supernatant liquid was removed and the cells placed in new micro-centrifuge tubes. After adding an amount of isopropyl alcohol equivalent to one-half of the volume of the supernatant liquid, and mixing until homogeneous, the samples were allowed to stand at room temperature for 10 min. The supernatant liquid was removed after centrifugation at 12,000 rpm for 10 min. 1 ml 70% alcohol was added to wash out salts, followed by centrifugation for 5 min. and removal of supernatant liquid. The samples were dissolved in 50 μl DEPC-H2O after drying.
(1) cDNA synthesis: 1 μl Random hexamer primer (20 μM) and 1 μl dNTP(10 mm) were added to 3 μg RNA, which was allowed to react at 65° C. for 5 min., and then placed on ice promptly. After the addition of 2 μl 10× reaction buffer, 0.5 μl RNaseOUT (40 unit/μl) and 1 μl SuperScript III RT (200 unit/μl), the solution was mixed until homogeneous, and allowed to react at 50° C. for 50 min. After that, the mixture was heated to 85° C. for 5 min. to terminate the enzymatic reaction. The samples were preserved at −70° C. for later use.
(2) PCR quantitative analysis: After adding 7.5 μl PCR primer mix (400 nm each) and 15 μl SYBR Green dye reagent to the 7.5 μl cDNA template, the solution was placed in Bio-Rad's iCycler for PCR reaction. The resulting data was inputted into Gene Expression Analysis for iCycler iQ Real-Time PCR Detection System for quantitative analysis of gene expression.
Furthermore, after treating vascular smooth muscle cells with 100 μg/ml of either Sal-B or EBA for 48 hrs, the identical concentrations of cellular whole RNA were sampled for the synthesis of cDNA by using reverse transcriptase. The PCR method was employed to determine the amounts of endothelin receptor mRNA expression. […] For the analysis of ETAR mRNA expression by using the real-time PCR method, vascular smooth muscle cells at full confluence 100-mm culture dishes were treated with 100 μg/ml of either Sal-B or EBA for 48 hrs. The identical concentrations of cellular whole RNA were sampled for the synthesis of cDNA by using reverse transcriptase. The real-time PCR method was used to compare the amounts of ETAR mRNA expression.
The different analogs, compounds A to F, had different effects on ETAR mRNA expression. The control group represented treating smooth muscle cells (A10) with DMSO, and the positive control group represented treating the cells with Sal-B. The smooth muscle cells were treated with 0.2 mM Sal-B and compounds A to F for 48 hrs. The identical concentrations of cellular RNA were sampled for the synthesis of cDNA by using reverse transcriptase. The real-time PCR method was employed to determine the amounts of ETAR mRNA expression. Compared with the control group, compound B had the least effect on down-regulating ETAR mRNA expression, as approximately 50% of the ETAR mRNA remained after the treatment. […]

[1] = system: prostate cancer cells (PC-3); experiment: MTT cell viability, prostate cancer cells; conditions: for Cell viability at higher concentrations: PC-3, 0.3 mM (or higher), 48 hrs, MTT
Procedure: The cells (1×10^5 cells/well in 24-well plates) were cultured for 24 hrs. Different concentrations of Sal-B and its analogs (0, 50, 100, 150, 200, 250 μg/ml) were added to treat the cells. After treating for 48 hrs, 100 μl MTT solution was added to each well, and the plate was placed in an incubator for 1-4 hrs. After adding 400 μl DMSO to treat the cells for 30 min., 200 μl samples were collected and placed in a 96-well plate to conduct the absorption measurement at 550 nm.
Cancer cells were treated with Sal-B and EBA at concentrations of 0, 0.1, 0.2, 0.3, 0.4, 0.5 mM. After treating for 48 hrs, MTT was added, and then allowed to react for 3 hrs at 37° C. After that, DMSO was added and allowed to react for 30 min., the OD570 absorption values were measured. Cell viability was above 80% when nasopharyngeal cancer cells (Hone-1) were treated with […] Sal-B and EBA. […] But the cell viability remained above 70% for treating with 0.1 mM and 0.2 mM EBA. Similar results were obtained when prostate cancer cells (PC-3) were treated with the drugs: Cell viability was above 80% for treating PC-3 cells with 0.2 mM Sal-B or EBA.
MTT testing was employed to observe the viability of cancer cells after treating with Sal-B and the six synthetic analogs.

## epiblechnic acid [EBA]
PC-3 cancer cells
  PC-3 cancer cells at sub-G1 phase: approximately 1.73%
ETAR mRNA expression
  ETAR mRNA expression, % of that in the control: roughly 51%
[1]
  Cell viability at higher concentrations: did not significantly reduce the cell viability

## O=C(/C=C/c1ccc(O)c2c1[C@H](C(=O)O[C@H](Cc1ccc(O)c(O)c1)C(=O)[O-])[C@@H](c1ccc(O)c(O)c1)O2)O[C@H](Cc1ccc(O)c(O)c1)C(=O)[O-].[Mg+2] [Sal-B, magnesium lithospermate B]
PC-3 cancer cells
  PC-3 cancer cells at sub-G1 phase: Approximately 5.16%
ETAR mRNA expression
  ETAR mRNA expression, % of that in the control: approximately 27%
[1]
  Cell viability at higher concentrations: the cell viability was reduced
[1]; PC-3, MTT, increasing concentration, FIG. 1
  Viability of PC-3 cells as the concentration is increased: reduced as the concentration of Sal-B was increased
